These are literature values, as cited in patent US20180042845A1, “PREPARATIONS OF CANNABIS EMULSIONS AND METHODS THEREOF” (ONE WORLD CANNABIS LTD., priority 2015, published 2018).

Each structure is given as a SMILES string.

Data set [1] concerns the target CB2 receptor (Homo sapiens, UniProt P34972).

Chain of CB2 receptor (P34972 whole entry): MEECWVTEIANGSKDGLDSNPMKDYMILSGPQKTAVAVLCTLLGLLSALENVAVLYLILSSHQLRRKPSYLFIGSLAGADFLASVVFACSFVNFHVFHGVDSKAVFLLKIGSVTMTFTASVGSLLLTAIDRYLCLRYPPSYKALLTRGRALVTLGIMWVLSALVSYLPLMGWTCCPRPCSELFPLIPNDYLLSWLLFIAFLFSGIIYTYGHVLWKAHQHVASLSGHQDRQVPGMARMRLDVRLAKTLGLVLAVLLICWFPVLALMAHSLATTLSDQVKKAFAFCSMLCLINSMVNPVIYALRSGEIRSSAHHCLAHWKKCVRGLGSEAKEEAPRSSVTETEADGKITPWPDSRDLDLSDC

In the case of `C=C(C)[C@@H]1CCC(C)=C[C@H]1c1c(O)cc(CCCCC)cc1O` [Cannabidiol], the “Affinity for CB2 receptors” value in data set [1] is given as “very low affinity”.
Consider `CCCCCc1cc(O)c2c(c1)OC(C)(C)[C@@H]1CCC(C)=C[C@@H]21` [THC, Tetrahydrocannabinol], for which the “Fraction of administered dose reaching systemic circulation” value (oral, first pass hepatic metabolism and high lipid solubility) is on record as 10-20%. Besides, the “Fraction absorbed after a single oral dose” value (single dose) is listed as 90-95%.
